{"source": "PubChem BioAssay AID2060912", "about": "(Molecular Pharmacology Branch, DTP, NCI, 2025)", "tested_on": "HUVEC/MSC spheroids viability", "test": "Human HUVEC/MSC cell line growth inhibition [KRAS2];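 on viability, T/C: percent of DMSO vehicle control luminescence so 100% = untreated viability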", "conditions": "for IC50: curve of first compound; for viability, T/C: stronger effect = lower value", "procedure,_shortened": "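Growth/viability of tumour-free HUVEC–hMSC spheroids was measured after exposure to targeted small molecules and KRAS inhibitors, singly or in combination. Agents were diluted in half-log steps from Cmax-based top concentrations, capped at 10 microM without known Cmax.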", "data": [{"smiles": "CC(=O)Nc1cccc(-n2c(=O)n(C3CC3)c(=O)c3c(Nc4ccc(I)cc4F)n(C)c(=O)c(C)c32)c1", "note": "+ CC1OCC2(CCN(c3cnc(Sc4ccnc(N)c4Cl)c(N)n3)CC2)C1N", "values": [{"measurement": "IC50", "setting": "second compound 0.0316 µM", "result": 18.1, "unit": "nM"}, {"measurement": "IC50", "setting": "second compound 0.1 µM", "result": 15.9, "unit": "nM"}, {"measurement": "IC50", "setting": "second compound 0.316 µM", "result": 16.2, "unit": "nM"}, {"measurement": "IC50", "setting": "second compound 1 µM", "result": 5.18, "unit": "nM"}, {"measurement": "IC50", "setting": "second compound 3.16 µM", "result": 1.27, "unit": "nM"}, {"measurement": "IC50", "setting": "second compound 10 µM", "result": "< 0.0949", "unit": "nM"}, {"measurement": "viability, T/C", "setting": "second compound 0.0316 µM, first compound 94.9 pM", "result": 110, "unit": "%"}, {"measurement": "viability, T/C", "setting": "second compound 0.0316 µM, first compound 0.0003 µM", "result": 142, "unit": "%"}, {"measurement": "viability, T/C", "setting": "second compound 0.0316 µM, first compound 0.000949 µM", "result": 113, "unit": "%"}, {"measurement": "viability, T/C", "setting": "second compound 0.0316 µM, first compound 0.003 µM", "result": 118, "unit": "%"}, {"measurement": "viability, T/C", "setting": "second compound 0.0316 µM, first compound 0.00949 µM", "result": 82.6, "unit": "%"}, {"measurement": "viability, T/C", "setting": "second compound 0.0316 µM, first compound 0.03 µM", "result": 24.4, "unit": "%"}, {"measurement": "viability, T/C", "setting": "second compound 0.1 µM, first compound 94.9 pM", "result": 118, "unit": "%"}, {"measurement": "viability, T/C", "setting": "second compound 0.1 µM, first compound 0.0003 µM", "result": 106, "unit": "%"}, {"measurement": "viability, T/C", "setting": "second compound 0.1 µM, first compound 0.000949 µM", "result": 104, "unit": "%"}, {"measurement": "viability, T/C", "setting": "second compound 0.1 µM, first compound 0.003 µM", "result": 89.2, "unit": "%"}, {"measurement": "viability, T/C", "setting": "second compound 0.1 µM, first compound 0.00949 µM", "result": 77.5, "unit": "%"}, {"measurement": "viability, T/C", "setting": "second compound 0.1 µM, first compound 0.03 µM", "result": 21.9, "unit": "%"}, {"measurement": "viability, T/C", "setting": "second compound 0.316 µM, first compound 94.9 pM", "result": 92.7, "unit": "%"}, {"measurement": "viability, T/C", "setting": "second compound 0.316 µM, first compound 0.0003 µM", "result": 95.2, "unit": "%"}, {"measurement": "viability, T/C", "setting": "second compound 0.316 µM, first compound 0.000949 µM", "result": 87.9, "unit": "%"}, {"measurement": "viability, T/C", "setting": "second compound 0.316 µM, first compound 0.003 µM", "result": 81.8, "unit": "%"}, {"measurement": "viability, T/C", "setting": "second compound 0.316 µM, first compound 0.00949 µM", "result": 74.5, "unit": "%"}, {"measurement": "viability, T/C", "setting": "second compound 0.316 µM, first compound 0.03 µM", "result": 24.3, "unit": "%"}, {"measurement": "viability, T/C", "setting": "second compound 1 µM, first compound 94.9 pM", "result": 85.6, "unit": "%"}, {"measurement": "viability, T/C", "setting": "second compound 1 µM, first compound 0.0003 µM", "result": 75.1, "unit": "%"}, {"measurement": "viability, T/C", "setting": "second compound 1 µM, first compound 0.000949 µM", "result": 69.1, "unit": "%"}, {"measurement": "viability, T/C", "setting": "second compound 1 µM, first compound 0.003 µM", "result": 55.7, "unit": "%"}, {"measurement": "viability, T/C", "setting": "second compound 1 µM, first compound 0.00949 µM", "result": 46, "unit": "%"}, {"measurement": "viability, T/C", "setting": "second compound 1 µM, first compound 0.03 µM", "result": 10.9, "unit": "%"}, {"measurement": "viability, T/C", "setting": "second compound 3.16 µM, first compound 94.9 pM", "result": 71.2, "unit": "%"}, {"measurement": "viability, T/C", "setting": "second compound 3.16 µM, first compound 0.0003 µM", "result": 69.5, "unit": "%"}, {"measurement": "viability, T/C", "setting": "second compound 3.16 µM, first compound 0.000949 µM", "result": 49.7, "unit": "%"}, {"measurement": "viability, T/C", "setting": "second compound 3.16 µM, first compound 0.003 µM", "result": 39.9, "unit": "%"}, {"measurement": "viability, T/C", "setting": "second compound 3.16 µM, first compound 0.00949 µM", "result": 22.7, "unit": "%"}, {"measurement": "viability, T/C", "setting": "second compound 3.16 µM, first compound 0.03 µM", "result": 3.47, "unit": "%"}, {"measurement": "viability, T/C", "setting": "second compound 10 µM, first compound 94.9 pM", "result": 48.7, "unit": "%"}, {"measurement": "viability, T/C", "setting": "second compound 10 µM, first compound 0.0003 µM", "result": 39, "unit": "%"}, {"measurement": "viability, T/C", "setting": "second compound 10 µM, first compound 0.000949 µM", "result": 33.3, "unit": "%"}, {"measurement": "viability, T/C", "setting": "second compound 10 µM, first compound 0.003 µM", "result": 12.5, "unit": "%"}, {"measurement": "viability, T/C", "setting": "second compound 10 µM, first compound 0.00949 µM", "result": 5.14, "unit": "%"}, {"measurement": "viability, T/C", "setting": "second compound 10 µM, first compound 0.03 µM", "result": 0.77, "unit": "%"}]}, {"smiles": "COC(=O)c1ccc2c(C(=Nc3ccc(N(C)C(=O)CN4CCN(C)CC4)cc3)c3ccccc3)c(O)[nH]c2c1", "note": "+ CC1OCC2(CCN(c3cnc(Sc4ccnc(N)c4Cl)c(N)n3)CC2)C1N", "values": [{"measurement": "IC50", "setting": "second compound 0.0316 µM", "result": 1550, "unit": "nM"}, {"measurement": "IC50", "setting": "second compound 0.1 µM", "result": 1180, "unit": "nM"}, {"measurement": "IC50", "setting": "second compound 0.316 µM", "result": 620, "unit": "nM"}, {"measurement": "IC50", "setting": "second compound 1 µM", "result": 623, "unit": "nM"}, {"measurement": "IC50", "setting": "second compound 3.16 µM", "result": 528, "unit": "nM"}, {"measurement": "IC50", "setting": "second compound 10 µM", "result": 353, "unit": "nM"}, {"measurement": "viability, T/C", "setting": "second compound 0.0316 µM, first compound 0.0316 µM", "result": 112, "unit": "%"}, {"measurement": "viability, T/C", "setting": "second compound 0.0316 µM, first compound 0.1 µM", "result": 111, "unit": "%"}, {"measurement": "viability, T/C", "setting": "second compound 0.0316 µM, first compound 0.316 µM", "result": 89.7, "unit": "%"}, {"measurement": "viability, T/C", "setting": "second compound 0.0316 µM, first compound 1 µM", "result": 52.6, "unit": "%"}, {"measurement": "viability, T/C", "setting": "second compound 0.0316 µM, first compound 3.16 µM", "result": 38.8, "unit": "%"}, {"measurement": "viability, T/C", "setting": "second compound 0.0316 µM, first compound 10 µM", "result": 2.26, "unit": "%"}, {"measurement": "viability, T/C", "setting": "second compound 0.1 µM, first compound 0.0316 µM", "result": 94.1, "unit": "%"}, {"measurement": "viability, T/C", "setting": "second compound 0.1 µM, first compound 0.1 µM", "result": 106, "unit": "%"}, {"measurement": "viability, T/C", "setting": "second compound 0.1 µM, first compound 0.316 µM", "result": 77, "unit": "%"}, {"measurement": "viability, T/C", "setting": "second compound 0.1 µM, first compound 1 µM", "result": 47.8, "unit": "%"}, {"measurement": "viability, T/C", "setting": "second compound 0.1 µM, first compound 3.16 µM", "result": 32, "unit": "%"}, {"measurement": "viability, T/C", "setting": "second compound 0.1 µM, first compound 10 µM", "result": 0.33, "unit": "%"}, {"measurement": "viability, T/C", "setting": "second compound 0.316 µM, first compound 0.0316 µM", "result": 108, "unit": "%"}, {"measurement": "viability, T/C", "setting": "second compound 0.316 µM, first compound 0.1 µM", "result": 82, "unit": "%"}, {"measurement": "viability, T/C", "setting": "second compound 0.316 µM, first compound 0.316 µM", "result": 73.4, "unit": "%"}, {"measurement": "viability, T/C", "setting": "second compound 0.316 µM, first compound 1 µM", "result": 34.9, "unit": "%"}, {"measurement": "viability, T/C", "setting": "second compound 0.316 µM, first compound 3.16 µM", "result": 16.6, "unit": "%"}, {"measurement": "viability, T/C", "setting": "second compound 0.316 µM, first compound 10 µM", "result": 1.89, "unit": "%"}, {"measurement": "viability, T/C", "setting": "second compound 1 µM, first compound 0.0316 µM", "result": 74.3, "unit": "%"}, {"measurement": "viability, T/C", "setting": "second compound 1 µM, first compound 0.1 µM", "result": 72.8, "unit": "%"}, {"measurement": "viability, T/C", "setting": "second compound 1 µM, first compound 0.316 µM", "result": 74.2, "unit": "%"}, {"measurement": "viability, T/C", "setting": "second compound 1 µM, first compound 1 µM", "result": 33.4, "unit": "%"}, {"measurement": "viability, T/C", "setting": "second compound 1 µM, first compound 3.16 µM", "result": 0.59, "unit": "%"}, {"measurement": "viability, T/C", "setting": "second compound 1 µM, first compound 10 µM", "result": 0.29, "unit": "%"}, {"measurement": "viability, T/C", "setting": "second compound 3.16 µM, first compound 0.0316 µM", "result": 69.4, "unit": "%"}, {"measurement": "viability, T/C", "setting": "second compound 3.16 µM, first compound 0.1 µM", "result": 73.3, "unit": "%"}, {"measurement": "viability, T/C", "setting": "second compound 3.16 µM, first compound 0.316 µM", "result": 64.5, "unit": "%"}, {"measurement": "viability, T/C", "setting": "second compound 3.16 µM, first compound 1 µM", "result": 30.9, "unit": "%"}, {"measurement": "viability, T/C", "setting": "second compound 3.16 µM, first compound 3.16 µM", "result": 0.39, "unit": "%"}, {"measurement": "viability, T/C", "setting": "second compound 3.16 µM, first compound 10 µM", "result": 0.29, "unit": "%"}, {"measurement": "viability, T/C", "setting": "second compound 10 µM, first compound 0.0316 µM", "result": 63.5, "unit": "%"}, {"measurement": "viability, T/C", "setting": "second compound 10 µM, first compound 0.1 µM", "result": 61.1, "unit": "%"}, {"measurement": "viability, T/C", "setting": "second compound 10 µM, first compound 0.316 µM", "result": 53.8, "unit": "%"}, {"measurement": "viability, T/C", "setting": "second compound 10 µM, first compound 1 µM", "result": 14.7, "unit": "%"}, {"measurement": "viability, T/C", "setting": "second compound 10 µM, first compound 3.16 µM", "result": 0.37, "unit": "%"}, {"measurement": "viability, T/C", "setting": "second compound 10 µM, first compound 10 µM", "result": 0.38, "unit": "%"}]}]}
